From patent publication US6482814B1, “Biocidal composition and its use” (Avecia Limited, priority 1998, dated 2002)

Assays:
Pseudomonas aeruginosa [1] = assay: Determination of MIC (microtitre doubling dilution), bacteria; assay type: cell-based; details: chemical alone; visual growth after 24 hours at 37° C.
Procedure: (§1) Bacteria were grown to stationary phase (18 hours) in nutrient broth to give approximately 10^9 colony forming units per ml (CFU/ml). A 0.1% (v/v) inoculum was used to seed fresh medium and 100 μl was then added to each well of a microtitre plate, except for the first well which contained 200 μl. By using a doubling dilution technique, the concentration of the chemical under investigation was varied in each well along the ordinate axis. The presence or absence of bacterial growth was determined by visual inspection after 24 hours incubation at 37° C.

Aspergillus niger [2] = assay: Determination of FIC (10x10 matrix, isobologram); assay type: cell-based; details: for concentration in the optimal composition: component of the combination BBIT + ZHMT; for Optimal FIC Concentration: component of the combination BBIT + ZO
Description: (§2) The composition of the present invention has antimicrobial properties and has been found particularly effective against deteriogens for plastics materials, especially in soil burial applications. […] The FIC is the ratio of the amount of each component in the composition relative to its Minimum Inhibitory Concentration (MIC) when used alone. […] When the sum of the FIC values is below one, the mixture is synergistic and when the sum of the FIC values is greater than one, the mixture is antagonistic. The FIC values are preferably determined by constructing an isobologram wherein each component in a matrix array is varied stepwise from a concentration in excess of the MIC down to zero ppm.
(§3) A matrix was constructed in a 10×10 array in microtitre wells wherein the concentration of each chemical was varied stepwise by serial dilution from a concentration of twice the MIC down to zero. As each microtitre plate contains only 96 wells the combination of the two compounds making up the extreme concentrations (highest and lowest) were omitted. Each mixture (100 μl) was added to the plate so that the total volume was maintained at 200 μl. By transferring 100 μl from each well to the adjacent well containing 100 μl nutrient the concentration of the chemical was reduced from twice the MIC to zero in a stepwise manner.
(§4) The presence or absence of growth was determined visually after incubation. The plates containing bacteria were incubated for 16-24 hours at 37° C. and the plates containing fungi were incubated for 40-72 hours at 25° C. From the matrix an isobologram was created and the FIC for each chemical of the composition calculated. The FIC is the ratio of the concentration of chemical which inhibits growth when applied as a combination of chemicals relative to the MIC for that chemical when applied alone.
(§5) The FIC values for the combination of N-n-butyl-1,2-benzisothiazolin-3-one (BBIT) and the 2:1 zinc complex of 3-hydroxy-4-methylthiazol-2(3H)-thione against a bacterium and a fungus are recorded in Tables 2 and 3, respectively.
(§6) The FIC values for N-n-butyl-1,2-benzisothiazolin-3-one and the 2:1 zinc complex of 1-hydroxypyridine-2-thione were determined in similar manner to that described in Example 1.

Pseudomonas aeruginosa [3] = assay: Determination of FIC (10x10 matrix, isobologram); assay type: cell-based; details: for concentration in the optimal composition: component of the combination BBIT + ZHMT; for Optimal FIC Concentration: component of the combination BBIT + ZO
Description: as §2, §3, §4, §5, §6

Aspergillus niger [4] = assay: Determination of MIC (microtitre doubling dilution), fungi; assay type: cell-based; details: chemical alone; visual growth after 48 hours at 25° C.
Procedure: as §1
(§7) The presence or absence of fungal growth was determined by visual inspection after incubation for 48 hours at 25° C.

Alternaria alternata [5] = assay: Determination of FIC (10x10 matrix, isobologram); assay type: cell-based; details: component of the combination BBIT + ZO
Description: as §2
A matrix was constructed in a 10×10 array in microtitre wells wherein the concentration of each chemical was varied stepwise by serial dilution from a concentration of twice the MIC down to zero. As each microtitre plate contains only 96 wells the combination of the two compounds making up the extreme concentrations (highest and lowest) were omitted. […]
The presence or absence of growth was determined visually after incubation. […] From the matrix an isobologram was created and the FIC for each chemical of the composition calculated. […]
as §6

[6] = test system: mixed inoculum of Aureobasidium pullulans, Fusarium enicillium funicularum, Scopulariopsis brevicaulis and Streptoverticillium waksmanii; assay: Soil burial of plasticised PVC strips, weight loss; details: PVC strip, 3000 ppm
Procedure: Polvinylchioride sheets were prepared by callendaring the following mixture at 160° C.
100 parts Polyvinylchloride (Evipol SH65/20 ex EVC)
25 parts Dioctylphthalate (ex BP Chemicals)
25 parts Dioctyladipate (ex BP Chemicals)
2 parts Mixed Ca/Zn salt Lankromark LN138 as stabiliser (ex Lankro Chem)
3 parts Lankroflex ED6 as stabiliser/plasticiser (ex Lankro Chem)
5 parts Calcium stearate (ex Aldrich)
0.2 parts Stearic acid (ex Aldrich)
Sheets were fabricated with and without a 1:1 mixture of N-n-butyl-1,2-benzisothiazolin 3-one (BBIT) and the 2:1 zinc complex of 1-hydroxypyridine-2-thione (ZO). […]
Strips of the PVC (8 parts, 12.5×5 cm) were weighed to 4 decimal places, folded and buried in potting compost (John Innes No 2) in a plastic humidity chamber. The compost was sprayed with a mixed inoculum of Aureobasidium pullulans, Fusarium enicillium funicularum, Scopulariopsis brevicaulis and Streptoverticillium waksmanii and incubated at 25° C. The PVC strips were examined at 4 weeks intervals when they were cleaned, dried and weighed. The weight loss is recorded in Table 5 below.

Alternaria alternata [7] = assay: Determination of MIC (microtitre doubling dilution), fungi; assay type: cell-based; details: chemical alone; visual growth after 48 hours at 25° C.
Procedure: as §1, §7

Aureobasidium pullulans = assay: as above; assay type: cell-based; details: chemical alone; visual growth after 48 hours at 25° C.
Procedure: as §1, §7

Compound	MIC (Pseudomonas aeruginosa [1]) [ppm]	concentration in the optimal composition (Aspergillus niger [2]) [ppm]	concentration in the optimal composition (Pseudomonas aeruginosa [3]) [ppm]	MIC (Aspergillus niger [4]) [ppm]	Optimal FIC Concentration (Alternaria alternata [5]) [ppm]	Weight Loss ([6]; 0 weeks) [%]	Weight Loss ([6]; 4 weeks) [%]	Weight Loss ([6]; 8 weeks) [%]	Weight Loss ([6]; 12 weeks) [%]	Weight Loss ([6]; 16 weeks) [%]	Optimal FIC Concentration (Aspergillus niger [2]) [ppm]	Optimal FIC Concentration (Pseudomonas aeruginosa [3]) [ppm]	MIC (Alternaria alternata [7]) [ppm]	MIC (Aureobasidium pullulans) [ppm]
Cc1csc(=S)n1[O-].Cc1csc(=S)n1[O-].[Zn+2] [ZHMT, 2:1 zinc complex of 3-hydroxy-4-methylthiazol-2(3H)-thione]	16	5.9	10.6	16										
[O-]n1ccccc1=S.[O-]n1ccccc1=S.[Zn+2] [ZO, 2:1 zinc complex of 1-hydroxypyridine-2-thione]	33.5			11	22	0	0.3	0.8	1.5	2.3	8.3	16.4	55	1.5
CCCCn1sc2ccccc2c1=O [BBIT, N-n-butyl-1,2-benzisothiazolin-3-one]	444	17.4	111	44.5	22	0	1.2	2.8	5.6	8.1	5.3	111	67	3
